Results from publication PMC6068397 (ACS nano, 2018).
“Also recorded” adds a separate entry of the source.

Assays:
native MOR [1] = conditions: optical assays; cited from earlier work
native MOR [2] = conditions: cited from earlier work
[3] = system: water-soluble μ-opioid receptor (wsMOR); test: wsMOR-functionalized graphene field-effect transistor; format: binding, human; conditions: GFET, 1 nM oxytocin solution
[4] = system: water-soluble μ-opioid receptor (wsMOR); format: binding, human; conditions: 1× PBS

[D-Ala^2, N-MePhe^4, Gly-ol]-enkephalin
KA, binding between native MOR and enkephalin (native MOR [1]): 1.2−3.1 nM

oxytocin
Specific binding to native MOR (native MOR [2]): known not to bind specifically to native MOR | Level of nonspecific binding to wsMOR [3]: low level of nonspecific binding | Sensor response (shift of the Dirac voltage, ΔVD) ([3]; negative control): 0.17 V | Response of the biosensor (selectivity, negative control) ([4]; concentrations below 1 μM, graphene microelectrode): essentially negligible

β-endorphin
Ratio of amplitude A, β-endorphin to enkephalin ([4]; larger than the amplitude found for enkephalin): ~ 1.6 times | Limit of detection ([4]; physiological ionic strength): picomolar range; also recorded: picomolar level
